Assay results as given in patent publication US20130123386A1, “HINDERED PRIMARY CHLORINATED AMINE IN A LATEX FORMULATION” (ROHM AND HAAS COMPANY, priority 2011, published 2013).

Tests used:
[1] = test system: standard industrial inoculum; test: Preservative efficacy (challenge) testing of latex binder samples, growth rating of streaked TSA plates; type: cell-based
Description: The samples prepared in accordance with Examples 1-4 and Comparative Example 1 were subjected to preservative efficacy testing in accordance with the following procedure:
A 1-g aliquot was removed from each sample and submitted for biocide analysis by a standard HPLC procedure to check the amount of isothiazolone microbicide dosed. The samples were then dosed with the standard industrial inoculum at a level of 0.1 mL/10 g.
All bacteria and yeast were stored at −70° C. to −80° C. in broth and glycerol (15%) prior to inoculum preparation. Molds were maintained on potato dextrose agar (PDA) plates at 2-5° C. The bacteria and yeast cultures were thawed and 0.1-mL aliquots of each were transferred into separate 10-mL aliquots of tryptic soy broth (TSB). These cultures were incubated at 30° C. for 18-24 h, with shaking at 150-200 rpm.
A volume of 10 mL of sterile phosphate buffer was measured out. The two mold strains were added by wetting sterile swabs in phosphate buffer, or water, and then rolling the swabs over the molds, covering an area of approximately 1 in^2 on each plate. The mold-covered swabs were then immersed in the 10 mL of phosphate buffer and agitated to suspend the spores. A volume of 0.1 mL of each bacterial culture, and a volume of 1 mL of each yeast culture, was then added to the mold mixture. The inoculum was blended by vortexing briefly. The organisms used in the inoculum and their corresponding American Type Culture Collection numbers (ATCC #) are shown in Table 1.
Samples were inverted several times to mix in the microorganisms. This inoculation challenged each test sample with 10^6-10^7 colony forming units/mL latex. Using a 10-μL sterile loop, latex samples were streaked onto tryptic soy agar (TSA) plates. This procedure was carried at t=0 and at several other time points during the first ˜5 h of the experiment to obtain speed-of-kill data. Additional time points were taken at t=1, 2 and 7 days. Between time points, all samples were stored at 30° C. In addition, all streaked TSA plates were incubated at 30° C. […]

[2] = Heat aging of amine/latex binder preparation at 50° C. for 14 days, concentration by GC; type: physicochemical; settings: latex binder
Description: A 20.0-g dispersion of N-chloro-2,4,4-trimethylpentan-2-amine, 18% sodium lauryl sulfate, and water (C1-TOA, 0.47 g; SLS, 1.29 g; H2O, 18.24.g) with a particle size in the range of 100 to 850 nm was added to a butyl acrylate/methyl methacrylate/methacrylic acid latex binder (180 g; 50/49/1 percentages by weight) stabilized by SLS (1 weight percent) and Disponil FES 32 emulsifier (1 weight percent). The Cl-TOA/binder preparation was heat aged at 50° C. for 14 days. The concentration of Cl-TOA prior to the heat aging step was 2350 ppm (14 mM). The concentration of Cl-TOA after the heat-aging step was measured by GC to be ˜160 ppm based on the volume of the binder.
The procedures were carried out substantially as described for Example 1 except that, after heat-aging, a diluted sample of KATHON™ LX Microbicide Concentrate (A Trademark of The Dow Chemical Company or Its Affiliates) was mixed in with the binder/Cl-TOA preparation by shaking the samples at 200 rpm for 20 min, giving a final dosage of ˜5 ppm active. The concentration of Cl-TOA after the heat-aging step was measured by GC to be ˜160 ppm based on the volume of the binder.
The procedure of Example 2 was repeated except that the constituents of the added dispersion were Cl-TOA (0.19 g), SLS (0.52 g), and water (19.29 g). The concentration of Cl-TOA after the heat-aging step was estimated to be ˜65 ppm based on the volume of the binder.
(TOA, 0.38 g; SLS, 1.06 g; H2O, 18.56 g) with a particle size in the range of 100 to 850 nm was added to a butyl acrylate/methyl methacrylate/methacrylic acid latex binder (180 g; 50/49/1 percentages by weight) stabilized by SLS (1 weight percent) and Disponil FES 32 emulsifier (1 weight percent). The TOA/binder preparation was heat aged at 50° C. for 14 days. The concentration of TOA before heat aging was 1900 ppm (14 mM), and GC measurements indicated no change in TOA concentration as a result of heat aging. […]

| Concentration of Cl-TOA after the heat-aging step (estimated) ([2]; 940 ppm (6 mM) before heat aging, estimated, based on the volume of the binder (Example 3)) [ppm] | Concentration of Cl-TOA after the heat-aging step ([2]; 2350 ppm (14 mM) before heat aging, measured by GC, based on the volume of the binder (Examples 1 and 2)) [ppm] | Change in TOA concentration as a result of heat aging ([2]; 1900 ppm (14 mM) before heat aging, GC (Example 4)) | SMILES | Efficacy as a quick-kill preservative ([1]; alone or in combination with the KATHON LX Microbicide, heat-aged latex binder) | Biocidal activity ([1]; TOA itself) | Effect as an adjuvant for the biocide ([1]; with KATHON LX, compared to the microbiocide alone (Comp. Ex. 1)) |
| --- | --- | --- | --- | --- | --- | --- |
| ~65 | ~160 |  | CC(C)(C)CC(C)(C)NCl [Cl-TOA, N-chloro-2,4,4-trimethylpentan-2-amine] | effective |  |  |
|  |  | no change | CC(C)(C)CC(C)(C)N [TOA, 2,4,4-trimethylpentan-2-amine] |  | little or no biocidal activity | effective as an adjuvant |
